# Experimental data taken from patent publication US20100015042A1, “Combine radiation therapy and chemotherapy for treating cancer” (priority 2008, published 2010).
# Key:
# SQ2 cells = experiment: XTT cell proliferation assay on radioactive (224Ra-implanted) microplates; type: cell-based, mouse
# Description: Tumors: SQ2 cell line is a murine anaplastic cell line, which was generated from a SCC tumor that has developed spontaneously in a male BALB/c mouse. Panc02 is a murine pancreatic carcinoma cell line. CT26 cells is a N-nitroso-N-methylurethane-(NNMU) induced, undifferentiated colon carcinoma cell line which was purchased from the ATCC (CRL-2638). All cells were grown in Dulbecco's Modified Eagle Medium (DMEM) supplemented with 10% Fetal Calf Serum (Biological Industries, Beit Haemek, Israel), L-glutamine (2 mM), Penicillin (100 U/ml) and Streptomycin (100 μg/ml). […]
# Cell proliferation assay: The antiproliferative effects of alpha particles and cisplatin, alone and in combination, were determined using a 3-bis (2-methoxy-4-nitro-5 sulfenyl)-(2H)-tetrazolium-5-carboxanilide (XTT) assay (Cell Proliferation Kit, Biological industries, Beit-haemek, Israel). […] After two hours of incubation, absorbance was analyzed using an automated spectrophotometer (VersaMax, Molecular Devices, USA) at 475 nm wavelength.
# SQ2 cells were plated in 96 well plates implanted with ^224Ra atoms (0, 0.02, 0.063, 0.2, 0.63 and 2 Bq/mm^2, radioactive microplates). […] Cell numbers were assessed by the XTT assay 24, 48, and 72 hrs of incubation and expressed as percent of non-treated control cells.
# [1] = tested on: lung metastases of SQ2 tumors; experiment: Histological assessment of lung metastatic load; type: in vivo, BALB/c mice; conditions: treatment given alone, day 26, compared to inert wires
# Description: Histology: Histological analysis was performed on BALB/c mice lungs, both treated and untreated. Immediately following their removal, lungs were fixed by a 4% formaldehyde solution (Sigma, Rehovot, Israel) for at least 24 hrs. The preserved specimens were embedded in paraffin, and sections (5-10 μm) were stained with hematoxylin-eosin (H&E) (Surgipath, Richmond, USA) and analyzed for metastases detection. Metastatic burden quantification was performed by summing the gray values of all the pixels in the region of interest (ROI) divided by the number of pixels using image J free software [http://rsbdotinfodotnihdotgov/ij/].
# Histological assessment of lung sections was conducted in order to investigate the effect of the destruction of the primary tumor by DART wires on the development of metastases with or without the addition of cisplatin. Each 4 groups (Inert, ^224Ra wires, CP, CP+^224Ra wires) contained 3 animals. Animals were sacrificed at day 26 (lung metastases has been observed in this model at this time in previous studies) and lungs were harvested and processed for histological analysis and compared to normal lung tissues taken from healthy BALB/c mice. FIG. 5C describes the inhibition of lung metastatic load in mice treated with both intratumoral alpha irradiation and chemotherapy when compared to lungs of mice treated with inert wires.
# SQ2 tumors = experiment: Tumor growth and survival, two 224Ra wires at the tumor base with two cisplatin doses; type: in vivo, BALB/c mice
# Description: Tumor cell inoculation: Animals were inoculated intra-cutaneously with 5·10^5 SQ2 cells in 0.2 ml HBSS or 10^5 (CT26 and Panc-02) in 0.1 ml of HBSS (Biological industries, Beit haemek, Israel) into the low lateral side of the back. Local tumor growth was determined by measuring three mutually orthogonal tumor diameters with a digital caliper (Mitutoyo, Japan). The volume of tumor was calculated using the formula: V=(π/6)·D1D2D3, where D1, D2, D3 stand for the measured diameters
# Wire insertion: Wires, either loaded with ^224Ra or inert, cut to a length of 5-6 mm, were placed near the tip of a 23G needle attached to a 2.5 ml syringe (Picindolor, Rome, Italy) and inserted into the tumor by a plunger placed internally along the syringe axis.
# Statistical analysis: The statistical significance (p-value) of the differences between tumor volumes in the various groups was assessed by applying Student's two-sided t-test and repeated measures ANOVA. Survival analysis (Mantel-Cox test) was carried out using Statsoft Statistica 7.0.
# The following experiment was performed in order to examine the effect of two ^224Ra wires inserted horizontally to the base of each tumor in combination with 2 doses of chemotherapy. The cisplatin was administered using the same regime as that described in Example 3.
# A pronounced difference between tumor volumes of the irradiated group (^224Ra wires) and the animals treated with Cisplatin (CP) can be seen 10 days following DART treatment. […] Moreover, when analyzing the results of the group treated with the combination of Cisplatin and ^224Ra wires, it appears that a major growth inhibition was achieved when both modalities were administrated concomitantly. […] Twenty-four days following DART treatment, the average tumor volumes of the combined treatment group was 14 fold smaller compared to the inert control group (300 mm^3 and 4286 mm^3 respectively), and 3 fold smaller compared to the best effect achieved by the radioactive wires alone (924 mm^3). […]
# [2] = tested on: CT26 colon carcinoma tumors; experiment: Colon carcinoma tumor growth and cure, two 224Ra wires with 5-FU; type: in vivo, Balb/c mice; conditions: 5-FU 75 mg/kg 24 hours prior to wires; tumors 6-7 mm in diameter
# Description: FIG. 7 is a graph showing the effect of two ^224Ra-loaded wires combined with 5-FU treatment on colon cancers. Treatment was applied to Balb/c mice bearing 6-7 mm in diameter tumors. Two ^224Ra wires: Tumor bearing mice treated with 2 ^224Ra wires, carrying activities in the range of 27.9-35.5 kBq (n=5). Two ^224Ra wires combined with 5-FU: administration of 75 mg/kg 5-FU 24 hours prior to treatment with 2 ^224Ra wires, carrying activities in the range of 32.1-33.8 kBq (n=5). Two Inert wires combined with 5-FU: administration of 75 mg/kg 5-FU 24 hours prior to treatment with 2 inert wires (n=6). Two Inert wires: Tumor bearing mice treated with 2 inert wires (n=6).
# Tumor cell inoculation: Animals were inoculated intra-cutaneously with 5·10^5 SQ2 cells in 0.2 ml HBSS or 10^5 (CT26 and Panc-02) in 0.1 ml of HBSS (Biological industries, Beit haemek, Israel) into the low lateral side of the back. Local tumor growth was determined by measuring three mutually orthogonal tumor diameters with a digital caliper (Mitutoyo, Japan). The volume of tumor was calculated using the formula: V=(π/6)·D1D2D3, where D1, D2, D3 stand for the measured diameters […]
SMILES,"proliferation inhibition (SQ2 cells; 0.3 μM cisplatin alone, 72 hours)","antiproliferative effect (SQ2 cells; 3 and 30 μM, drug alone)",effect on lung metastatic burden (in words) [1],"average tumor volume, fold greater than the DART treated group (SQ2 tumors; 32 days after tumor cell inoculation, cisplatin 2 x 5 mg/kg vs two 224Ra wires)","prolongation of average survival compared to inert group (SQ2 tumors; two wires, cisplatin 2 x 5 mg/kg)","mean survival (SQ2 tumors; two wires, cisplatin 2 x 5 mg/kg, inert control 43.92 days)",No. of animals with tumors following treatment [2]
N.N.[Cl][Pt][Cl] [cisplatin],21%,> 60%,decreased metastatic burden although less than the combined treatment,2.14 fold,17%,51.38 days,–
"O=c1[nH]cc(F)c(=O)[nH]1 [Two inert wires and 5-FU, 5-fluorouracil]",–,–,–,–,–,–,6/6 with
